For one series, the system named is Myc-CREPT and Myc-CCT. Description: Exogenous IP experiment in HEK293T cells. The series is classed as binding. The following applies: GST-tagged CREPT ligand. On the procedure:
(§1) For exogenous immunoprecipitation assays, HEK293T cells were plated in 60 mm dishes and then transfected with the indicated plasmids. After 24 h, cells were harvested using RIPA buffer (50 mM Tris-HCl pH 8.0, 2 mM EDTA pH 8.0, 150 mM NaCl, 1% NP-40, 0.5% sodium deoxycholate, 0.1% SDS) with mixed protease inhibitors. Cell lysates were incubated with 2 μg of the indicated antibodies and 30 μL of protein A/G-Sepharose beads at 4 °C overnight. Beads were eluted five times with lysis buffer (50 mM Tris-HCl pH 7.6, 1 mM EDTA pH 8.0, 165 mM NaCl, 0.5% NP-40), and thereafter, a western blot assay was performed to analyze the association by using the indicated antibodies. Western blot was performed as previously reported. Anti-β-actin and anti-Flag antibodies were purchased from Sigma. Anti-Myc antibody was purchased from Santa Cruz Biotechnology. Antibody against CREPT was produced in the laboratory.

The next series concerns the target T1, Flag-CREPT (Homo sapiens, UniProt Q9NQG5).
T1 construct: expressed in transfected cells; host or cells: HEK293T
T1 sequence (Q9NQG5 1-326): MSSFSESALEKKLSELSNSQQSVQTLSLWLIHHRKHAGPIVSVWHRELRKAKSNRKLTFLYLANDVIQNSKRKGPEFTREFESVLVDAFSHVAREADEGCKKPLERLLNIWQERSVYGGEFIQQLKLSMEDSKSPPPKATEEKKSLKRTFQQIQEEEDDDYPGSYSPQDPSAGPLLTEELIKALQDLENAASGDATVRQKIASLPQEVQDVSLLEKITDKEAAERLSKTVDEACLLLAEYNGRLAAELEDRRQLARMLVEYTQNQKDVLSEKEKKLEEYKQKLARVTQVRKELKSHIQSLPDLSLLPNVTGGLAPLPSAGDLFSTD
The series is described as follows: GST pull-down. The series is classed as binding. Conditions: GST-tagged proteins purified from mammalian (HEK293T) cells. The method, then:
HEK293T cells were plated in 100 mm dishes and then transfected with the indicated plasmids. After 24 h, cells were harvested using RIPA buffer with mixed protease inhibitors. Cell lysates were incubated with 30 μL of GST-tagged Sepharose beads and 10 μg of purified proteins from either E. coli or HEK293T cells at 4 °C overnight. Beads were eluted five times with lysis buffer. Western blot was performed using an antibody against GST (Cell Signaling Technology) to analyze the association.

In series [1] the target is T2, purified GST-CREPT protein (Homo sapiens, UniProt Q9NQG5).
T2 construct: made in house
T2 sequence (Q9NQG5 1-326): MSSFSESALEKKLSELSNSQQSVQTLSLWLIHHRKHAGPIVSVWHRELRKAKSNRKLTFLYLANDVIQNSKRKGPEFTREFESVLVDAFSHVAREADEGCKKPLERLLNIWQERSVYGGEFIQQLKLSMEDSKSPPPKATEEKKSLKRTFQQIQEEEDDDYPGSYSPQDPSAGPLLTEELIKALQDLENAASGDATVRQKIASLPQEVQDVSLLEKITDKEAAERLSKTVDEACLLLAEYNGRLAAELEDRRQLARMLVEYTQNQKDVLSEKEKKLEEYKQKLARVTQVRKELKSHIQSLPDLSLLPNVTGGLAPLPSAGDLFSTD
The series is described as follows: Microscale thermophoresis (MST). The series is classed as binding. The following applies: FITC-labeled peptide 100 nM, gradient dilutions of purified GST-CREPT. The method, then:
FITC-labeled PRTC and PRTC-m were regarded as ligands. After a pretest, 100 nM of both PRTC and PRTC-m generated the most appropriate value of fluorescence. Gradient dilutions of purified CREPT proteins were regarded as the target. The Kd value was measured by Microscale Thermophoresis NT.115 and was analyzed by MO.AffinityAnalysis (Nano Temper, German).

The target in a further series is T3, CREPT protein (Homo sapiens, UniProt Q9NQG5).
T3 construct: made in house
T3 sequence (Q9NQG5 1-326): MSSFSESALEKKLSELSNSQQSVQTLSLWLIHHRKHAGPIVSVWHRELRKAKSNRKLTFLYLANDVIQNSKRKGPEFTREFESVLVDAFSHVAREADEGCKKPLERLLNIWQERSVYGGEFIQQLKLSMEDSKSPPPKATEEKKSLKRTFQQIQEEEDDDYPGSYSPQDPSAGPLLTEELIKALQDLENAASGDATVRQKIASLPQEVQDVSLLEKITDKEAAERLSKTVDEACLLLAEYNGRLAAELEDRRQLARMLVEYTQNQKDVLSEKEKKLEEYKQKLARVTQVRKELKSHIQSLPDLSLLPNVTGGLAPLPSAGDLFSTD
The series is described as follows: Thermal shift assay (TSA). The format is binding. Conditions: GST-tagged CREPT 5.33 μM, SYPRO Orange, 25 to 70 °C at 1 °C/min. On the procedure:
Purified CREPT proteins were appropriately diluted in a buffer containing 50 mM Tris-HCl, pH 8.0, 150 mM NaCl. The final concentration of CREPT protein was 5.33 μM. SYPRO Orange dye was diluted into 10 μM. The PCR plates were sealed, shaken, and centrifuged after proteins and peptides were added. Thermal scanning (25 to 70 °C at 1 °C/min) was performed using a real-time PCR instrument (Bio-Rad). Melting curves were generated by Prism 7.0 based on the raw data.

The nature of series [2]: Circular dichroism (CD) spectroscopy. The format is physicochemical. The following applies: 0.1 mg/mL in deionized water, room temperature. On the procedure:
All peptides were dissolved in the deionized water at a final concentration of 0.1 mg/mL. The CD spectra were measured by using a 1 nm bandwidth with a 1 nm step resolution from 190 to 260 nm at room temperature (Jasco spectropolarimeter, Japan). Final spectra were obtained from the average of three parallel scans after subtracting a spectrum of deionized water recorded under the same conditions. Each sample was scanned thrice and the averaged spectrum was smoothed. The helicity were calculated by CDNN 2.1 [59], [60].

In series [3] the target is T4, endogenous CREPT protein in Panc-1 cells (Homo sapiens, UniProt Q9NQG5).
T4 construct: endogenous protein level of CREPT in Panc-1, AsPc-1 and MIA-PaCa-2 cells; endogenous in cells; host or cells: Panc-1, AsPc-1, MIA PaCa-2
T4 sequence (Q9NQG5 1-326): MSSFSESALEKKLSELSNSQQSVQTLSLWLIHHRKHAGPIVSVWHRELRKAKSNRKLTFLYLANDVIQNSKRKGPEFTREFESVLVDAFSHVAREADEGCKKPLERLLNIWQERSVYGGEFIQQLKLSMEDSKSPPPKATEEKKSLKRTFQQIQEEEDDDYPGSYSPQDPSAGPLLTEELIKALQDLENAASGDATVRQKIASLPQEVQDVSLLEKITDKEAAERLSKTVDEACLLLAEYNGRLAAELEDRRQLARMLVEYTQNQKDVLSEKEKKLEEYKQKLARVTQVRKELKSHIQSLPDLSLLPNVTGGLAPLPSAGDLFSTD
Description: Western blot of endogenous CREPT (degradation). The series is classed as cell-based. The following applies: 10 μM or 20 μM peptide. On the procedure: as §1
To address whether PRTC could induce CREPT degradation, we examined the endogenous protein level of CREPT in Panc-1, AsPc-1 and MIA-PaCa-2 cells in the presence of different dosages of PRTC. […] Consistently, treatment with PRTC led to decreases in CREPT protein at different times (Figure 5B, S3A). […] To further visualize the degradation process, we stained the endogenous CREPT protein with an antibody against CREPT in the cells treated with FITC-labeled PRTC.
Figure 5 PRTC induces the ubiquitination and proteasome- dependent degradation of the endogenous CREPT protein. (A) Immunoblot of CREPT following 24 h incubation with different dosages of PRTC or PRTC-m in Panc-1 cells. (B) Immunoblot of CREPT exposed to 10 μM PRTC or PRTC-m for different times in Panc-1 cells. (C) Western blot analysis of CREPT following 24 h incubation with 10 μM PTRC in Panc-1 cells. MG132 is an inhibitor of proteasome activity. (D) Immunofluorescence visualization of Panc-1 cells after treatment with PRTC for 24 h. Cells were stained with anti-CREPT antibody. Scale bars, 20 μm.

Series [4] concerns the target T5, ubiquitinated CREPT in Panc-1 cells (Homo sapiens, UniProt Q9NQG5).
T5 construct: endogenous protein level of CREPT in Panc-1, AsPc-1 and MIA-PaCa-2 cells; endogenous in cells; host or cells: Panc-1, AsPc-1, MIA PaCa-2
T5 sequence (Q9NQG5 1-326): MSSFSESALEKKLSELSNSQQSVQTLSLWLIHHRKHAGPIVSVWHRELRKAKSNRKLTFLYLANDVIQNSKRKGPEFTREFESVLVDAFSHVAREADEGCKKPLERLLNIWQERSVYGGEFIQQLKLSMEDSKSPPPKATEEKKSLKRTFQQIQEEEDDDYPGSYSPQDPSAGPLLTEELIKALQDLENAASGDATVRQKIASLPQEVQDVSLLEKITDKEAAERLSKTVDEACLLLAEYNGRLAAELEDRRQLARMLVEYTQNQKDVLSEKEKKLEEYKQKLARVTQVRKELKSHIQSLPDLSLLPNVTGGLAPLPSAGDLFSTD
The series is described as follows: Endogenous IP of CREPT with ubiquitin (Co-IP). The format is cell-based. The following applies: 10 μM peptide for 24 h, IP: CREPT, IB: anti-ubiquitin. On the procedure: as §1
In addition, a Co-IP experiment was performed in Panc-1 cells treated with 10 μM PRTC, PRTC-m or PRTC-v for 24 h. […] In the absence of MG132, the level of ubiquitinated CREPT was further increased by PRTC (Figure 6C, compare lane 1 and lane 2).
Figure 6 The degradation of CREPT by PRTC is dependent on its VHL ligand. (A) Immunoblot of CREPT following 24 h incubation with different dosages of PRTC or PRTC-v in Panc-1 cells. (B) Immunoblot of CREPT exposed to 10 μM PRTC or PRTC-v for different time points in Panc-1 cells. (C) Endogenous IP experiment of CREPT with ubiquitin treated with 10 μM PTRC, PTRC-m or PTRC-v in Panc-1 cells. IP: CREPT, IB: Anti-ubiquitin.

Series [5] concerns Panc-1 cells. The series is described as follows: Cell viability assay (CCK-8). The series is classed as cell-based. Conditions: 10 μM, CCK-8, OD450, three individual experiments. On the procedure:
Cells were seeded into 96-well plates (1000 cells per well) and cultured for the indicated times. Cell viability was evaluated using a CCK-8 kit (Solarbio, Beijing, China). The value of OD450 was calculated by spectrophotometer and presented as the mean ± standard deviation (SD) from three individual experiments.

In series [6] the test system is Panc-1 cells. Description: Wound healing. The format is cell-based. The following applies: 10 μM for 24 h, FBS-free DMEM. The method, then:
Cells were seeded in 6-well plates. Monolayer cells were scratched after culturing to obtain at least 95% confluence. Cells were washed with PBS and maintained in FBS-free DMEM and then treated with 10 μM PRTC and PRTC-m for 24 h. Migration distance was observed by microscopy and was measured by ImageJ from three individual experiments.

No end group written: not given here.

Consider “GST-CL-m: GST protein tagged with CL-m (KDVPSEKEKKPEEYKQKPARV; also: GST tag, end not given here)”, for which the “binding in exogenous IP” value in the series with Myc-CREPT and Myc-CCT is “failed to bind”. Also, the “pull down of Flag-CREPT in vitro” value with Flag-CREPT is recorded as “lost the ability to associate”.
On to “IYP (OH) AL-AHX-KDVPSEKEKKPEEYKQKPARV-RRRRK [PRTC-m, three leucine residues on PRTC were replaced with proline residues]”, for which the “association with CREPT (MST)” value in series [1] is “failed to associate”. In addition, the “effect on thermal stability of CREPT” value on CREPT protein is “failed to alter”. In [2], the “secondary structure by CD spectrum” value is given as “disordered structure”. For the same substance, the Helicity in [2] (190 to 260 nm, average of three scans, calculated by CDNN 2.1) is reported as 7.9%. The “CREPT protein level at different times” value in series [3] was “no effect”. Besides, the “ubiquitinated CREPT proteins” value in [4] is reported as “unable to mediate the accumulation”. Further, the cell proliferation result in the series with Panc-1 cells [5] is reported as “failed”. Moreover, the “cell movement (wound healing)” value with Panc-1 cells [6] is recorded as “not”.
